28 molecules from US11013726B2 (Arbutus Biopharma Corporation, priority 2016, dated 2021) can be followed below.

The subject of this test is HBsAg. The experiment in a line: HBsAg assay. It is filed as cell-based, hepatitis B virus. As to conditions: Hepatitis B virus, HepG2.2.15, 144 h, read-out: sAg EC50, μM, HepG2.2.15 cells, day 6. The protocol: Inhibition of HBsAg was determined in HepG2.2.15 cells. Cells were maintained in culture medium containing 10% fetal calf serum, […], Glutamine, penicillin/streptomycin. Cells were seeded in 96-well collagen-coated plate at a density of 30,000 cells/well. Serially diluted compounds were added to cells next day at the final DMSO concentration of 0.5%. Cells were incubated with compounds for 2-3 days, after which medium was removed. Fresh medium containing compounds was added to cells for additional 3-4 days. At day 6 after exposure of compounds, supernatant was collected, the HBsAg immunoassay (microplate-based chemiluminescence immunoassay kits, CLIA, Autobio Diagnosics Co., Zhengzhou, China, Catalog # CL0310-2) was used to determine the level of HBsAg according to manufactory instruction. Dose-response curves were generated and the EC50 value (effective concentrations that achieved 50% inhibitory effect) were determined using XLfit software. In addition, cells were seeded at a density of 5,000 cells/well for determination of cell viability in the presence and absence of compounds by using CellTiter-Glo reagent (Promega). Tables 1-3 show EC50 values obtained by the HBsAg assay for selected compounds.
In the case of `CC(C)[C@@H]1COc2cc(OCCCNC(=O)OC(C)(C)C)c(C3CC3)cc2-c2cc(=O)c(C(=O)O)cn21` [Example 53, (R)-3-(3-((tert-Butoxycarbonyl)amino)propoxy)-2-cyclopropyl-7-isopropyl-11-oxo-6,7-dihydro-11H-benzo[f]pyrido[1,2-d][1,4]oxazepine-10-carboxylic acid], the 50% effective concentration (EC50) was 0.013 µM.
`CC(C)[C@@H]1COc2cc(OCC(F)(F)F)c(C3CC3)cc2-c2cc(=O)c(C(=O)O)cn21` [Example 54, (R)-2-Cyclopropyl-7-isopropyl-11-oxo-3-(2,2,2-trifluoroethoxy)-6,7-dihydro-11H-benzo[f]pyrido[1,2-d][1,4]oxazepine-10-carboxylic acid]: the EC50 was determined as 0.012 µM.
As for `CCOCCOc1cc2c(cc1C)-c1cc(=O)c(C(=O)O)cn1[C@H](C(C)C)CO2` [Example 55, (R)-3-(2-Ethoxyethoxy)-7-isopropyl-2-methyl-11-oxo-6,7-dihydro-11H-benzo[f]pyrido[1,2-d][1,4]oxazepine-10-carboxylic acid], the figure is 0.13 µM.
As for `CCc1cc2c(cc1OCCCO)OC[C@@H](C(C)C)n1cc(C(=O)O)c(=O)cc1-2` [Example 56, (R)-2-Ethyl-3-(3-hydroxypropoxy)-7-isopropyl-11-oxo-6,7-dihydro-111H-benzo[f]pyrido[1,2-d][1,4]oxazepine-10-carboxylic acid], the figure is 0.026 µM; as for `CCOCCOc1cc2c(cc1CC)-c1cc(=O)c(C(=O)O)cn1[C@H](C(C)C)CO2` [Example 57, (R)-3-(2-Ethoxyethoxy)-2-ethyl-7-isopropyl-11-oxo-6,7-dihydro-111H-benzo[f]pyrido[1,2-d][1,4]oxazepine-10-carboxylic acid], 0.034 µM.
In the case of `CCc1cc2c(cc1OCC(F)(F)F)OC[C@@H](C(C)C)n1cc(C(=O)O)c(=O)cc1-2` [Example 58, (R)-2-Ethyl-7-isopropyl-11-oxo-3-(2,2,2-trifluoroethoxy)-6,7-dihydro-11H-benzo[f]pyrido[1,2-d][1,4]oxazepine-10-carboxylic acid], the concentration giving a half-maximal response (EC50) is 0.021 µM.
As for `Cc1cc2c(cc1OCC(F)(F)F)OC[C@@H](C(C)C)n1cc(C(=O)O)c(=O)cc1-2` [Example 59, (R)-7-Isopropyl-2-methyl-11-oxo-3-(2,2,2-trifluoroethoxy)-6,7-dihydro-11H-benzo[f]pyrido[1,2-d][1,4]oxazepine-10-carboxylic acid], the figure is 0.089 µM; as for `Cc1cc2c(cc1OCCCO)OC[C@@H](C(C)C)n1cc(C(=O)O)c(=O)cc1-2` [Example 60, (R)-3-(3-Hydroxypropoxy)-7-isopropyl-2-methyl-11-oxo-6,7-dihydro-11H-benzo[f]pyrido[1,2-d][1,4]oxazepine-10-carboxylic acid], 0.057 µM; as for `COCCCNc1cc2c(cc1Cl)-c1cc(=O)c(C(=O)O)cn1[C@H](C(C)C)CO2` [Example 61, (R)-2-Chloro-7-isopropyl-3-((3-methoxypropyl)amino)-11-oxo-6,7-dihydro-11H-benzo[f]pyrido[1,2-d][1,4]oxazepine-10-carboxylic acid], 0.023 µM.
As for `CC(C)[C@@H]1COc2cc(N3CCOCC3)c(Cl)cc2-c2cc(=O)c(C(=O)O)cn21` [Example 62, (R)-2-Chloro-7-isopropyl-3-morpholino-11-oxo-6,7-dihydro-11H-benzo[f]pyrido[1,2-d][1,4]oxazepine-10-carboxylic acid], the figure is 0.21 µM; as for `COCCCN(C)c1cc2c(cc1Cl)-c1cc(=O)c(C(=O)O)cn1[C@H](C(C)C)CO2` [Example 63, (R)-2-Chloro-7-isopropyl-3-((3-methoxypropyl)(methyl)amino)-11-oxo-6,7-dihydro-11H-benzo[f]pyrido[1,2-d][1,4]oxazepine-10-carboxylic acid], 0.03 µM.
As for `COCCNc1cc2c(cc1Cl)-c1cc(=O)c(C(=O)O)cn1[C@H](C(C)C)CO2` [Example 64, (R)-2-Chloro-7-isopropyl-3-((2-methoxyethyl)amino)-11-oxo-6,7-dihydro-11H-benzo[f]pyrido[1,2-d][1,4]oxazepine-10-carboxylic acid], the figure is 0.066 µM.
Turning to `COCCN(C)c1cc2c(cc1Cl)-c1cc(=O)c(C(=O)O)cn1[C@H](C(C)C)CO2` [Example 65, (R)-2-Chloro-7-isopropyl-3-((2-methoxyethyl)(methyl)amino)-11-oxo-6,7-dihydro-11H-benzo[f]pyrido[1,2-d][1,4]oxazepine-10-carboxylic acid], the 50% effective concentration (EC50) turned out to be 0.27 µM.
`COCCCOc1cc2c(nc1Cl)-c1cc(=O)c(C(=O)O)cn1[C@H](C(C)(C)C)CO2` [Example 66, (R)-7-(Tert-butyl)-2-chloro-3-(3-methoxypropoxy)-11-oxo-6,7-dihydro-11H-dipyrido[1,2-d:2′,3′-f][1,4]oxazepine-10-carboxylic acid]: the EC50 was 0.002 µM.
As for `COCCCOc1cc2c(nc1C1CC1)-c1cc(=O)c(C(=O)O)cn1[C@H](C(C)(C)C)CO2` [Example 67, (R)-7-(Tert-butyl)-2-cyclopropyl-3-(3-methoxypropoxy)-11-oxo-6,7-dihydro-11H-dipyrido[1,2-d:2′,3′-f][1,4]oxazepine-10-carboxylic acid], the figure is 0.0009 µM.
As for `COCCCOc1cc2c(nc1Cl)-c1cc(=O)c(C(=O)O)cn1[C@H](C(C)C)CO2` [Example 68, (R)-2-Chloro-7-isopropyl-3-(3-methoxypropoxy)-11-oxo-6,7-dihydro-11H-dipyrido[1,2-d:2′,3′-f][1,4]oxazepine-10-carboxylic acid], the figure is 0.017 µM; as for `COCCCOc1cc2c(nc1Cl)-c1cc(=O)c(C(=O)O)cn1C1(CCCCC1)CO2` [Example 69, 2′-Chloro-3′-(3-methoxypropoxy)-1′-oxo-6′H,11′H-spiro[cyclohexane-1,7′-dipyrido[1,2-d:2′,3′-f][1,4]oxazepine]-10′-carboxylic acid], 0.021 µM.
As for `COCCCOc1cc2c(nc1Cl)-c1cc(=O)c(C(=O)O)cn1C1(CCCC1)CO2` [Example 70, 2′-Chloro-3′-(3-methoxypropoxy)-11′-oxo-6′H,11′H-spiro[cyclopentane-1,7′-dipyrido[1,2-d:2′,3′-f][1,4]oxazepine]-10′-carboxylic acid], the figure is 0.041 µM; as for `COCCCOc1cc2c(nc1Cl)-c1cc(=O)c(C(=O)O)cn1C1(COC1)CO2` [Example 71, 2-Chloro-3-(3-methoxypropoxy)-1-oxo-6H,11H-spiro[dipyrido[1,2-d:2′,3′-f][1,4]oxazepine-7,3′-oxetane]-10-carboxylic acid], 30 µM; as for `COCCCOc1cc2c(nc1Cl)-c1cc(=O)c(C(=O)O)cn1C1(CO2)CC(C)(C)C1` [Example 72, 2′-Chloro-3′-(3-methoxypropoxy)-3,3-dimethyl-11′-oxo-6′H,11′H-spiro[cyclobutane-1,7′-dipyrido[1,2-d:2′,3′-f][1,4]oxazepine]-10′-carboxylic acid], 0.18 µM.
As for `COCCCOc1cc2c(nc1Cl)-c1cc(=O)c(C(=O)O)cn1C1(CO2)CC(C)C1` (stereo not shown) [Example 73, 2′-Chloro-3′-(3-methoxypropoxy)-3-methyl-11′-oxo-6′H,11′H-spiro[cyclobutane-1,7′-dipyrido[1,2-d:2′,3′-f][1,4]oxazepine]-10′-carboxylic acid], the EC50 is 0.26 µM.
As for `COCCCOc1cc2c(nc1Cl)-c1cc(=O)c(C(=O)O)cn1C1(CCSCC1)CO2` [Example 74, 2-Chloro-3-(3-methoxypropoxy)-11-oxo-2′,3′,5′,6′-tetrahydro-6H,11H-spiro[dipyrido[1,2-d:2′,3′-f][1,4]oxazepine-7,4′-thiopyran]-10-carboxylic acid], the figure is 5 µM; as for `COc1cc2c(nc1Cl)-c1cc(=O)c(C(=O)O)cn1[C@H](C(C)C)CO2` [Example 75, (R)-2-Chloro-7-isopropyl-3-methoxy-11-oxo-6,7-dihydro-11H-dipyrido[1,2-d:2′,3′-f][1,4]oxazepine-10-carboxylic acid], 0.026 µM.
As for `CC(C)COc1cc2c(nc1C1CC1)-c1cc(=O)c(C(=O)O)cn1[C@H](C(C)C)CO2` [Example 76, (R)-2-Cyclopropyl-3-isobutoxy-7-isopropyl-11-oxo-6,7-dihydro-11H-dipyrido[1,2-d:2′,3′-f][1,4]oxazepine-10-carboxylic acid], the figure is 0.86 µM; as for `CC(C)[C@@H]1COc2cc(OCc3ccccc3)c(Cl)nc2-c2cc(=O)c(C(=O)O)cn21` [Example 77, (R)-3-(Benzyloxy)-2-chloro-7-isopropyl-11-oxo-6,7-dihydro-11H-dipyrido[1,2-d:2′,3′-f][1,4]oxazepine-10-carboxylic acid], 3.2 µM; as for `CC(C)[C@@H]1COc2cc(O)c(Cl)nc2-c2cc(=O)c(C(=O)O)cn21` [Example 78, (R)-2-Chloro-3-hydroxy-7-isopropyl-11-oxo-6,7-dihydro-11H-dipyrido[1,2-d:2′,3′-f][1,4]oxazepine-10-carboxylic acid], 5 µM.
As for `CC(C)COc1cc2c(nc1Cl)-c1cc(=O)c(C(=O)O)cn1[C@H](C(C)C)CO2` [Example 79, (R)-2-Chloro-3-isobutoxy-7-isopropyl-11-oxo-6,7-dihydro-11H-dipyrido[1,2-d:2′,3′-f][1,4]oxazepine-10-carboxylic acid], the figure is 0.79 µM.
Take `COCCCOc1cc2c(nc1Cl)-c1cc(=O)c(C(=O)O)cn1[C@H](CCO)CO2` [Example 80, (R)-2-Chloro-7-(2-hydroxyethyl)-3-(3-methoxypropoxy)-11-oxo-6,7-dihydro-11H-dipyrido[1,2-d:2′,3′-f][1,4]oxazepine-10-carboxylic acid]: the EC50 worked out at 0.26 µM.
